What is called IC50 is the point on the concentration scale where inhibition reaches its midpoint. The term inhibition denotes the relative decrease from the control value, in per cent.

The values that follow come from patent US20240083857A1, “2-Methyl-Quinazolines” (Bayer Pharma Aktiengesellschaft, priority 2017, published 2024).

Test [1] concerns the target human SOS1 (loading of human K-Ras^G12C-GDP with fluorescent GTP-analog) (Homo sapiens, UniProt Q07889). The experiment in a line: Biochemical assay 3: K-Ras^G12C activation assay by hSOS1 (HTRF). Conditions: no GTP; for IC50: read-out: Assay 3 (KRAS-Activation by SOS no GTP) activity expressed as IC50; for inhibition at 20 µM: read-out: Assay 3 (KRAS-Activation by SOS no GTP) activity expressed as % inhibition at 20 μM. For orientation: TR-FRET usually uses a lanthanide donor and a delayed reading to cut background.

In test [2] the target is human SOS1 (nucleotide exchange of K-Ras^G12C) (Homo sapiens, UniProt Q07889). Put plainly: Biochemical assay 2: K-Ras^G12C activation assay by hSOS1 at high GTP concentration (HTRF). The note with it: high GTP; for IC50: read-out: Assay 2 (KRAS-Activation by SOS high GTP) activity expressed as IC50; for inhibition at 20 µM: read-out: Assay 2 (KRAS-Activation by SOS high GTP) activity expressed as % inhibition at 20 μM.

For test [3], the target named is K-Ras^G12C : hSOS1 interaction (Homo sapiens, UniProt Q07889). Put plainly: Biochemical assay 1: K-Ras^G12C interaction assay with hSOS1 (HTRF). In kind it is binding. Conditions: for IC50: read-out: Assay 1 (KRAS-SOS Interaction) activity expressed as IC50.

On to `COc1cc2nc(C)nc(N[C@H](C)c3cccc(-c4cnc(N)nc4)c3)c2cc1OC` [Example 62, N-{(1R)-1-[3-(2-aminopyrimidin-5-yl)phenyl]ethyl}-6,7-dimethoxy-2-methylquinazolin-4-amine], for which the IC50 in test [1] came out at 2.63 µM; in test [2], 2.77 µM; in test [3], 1.26 µM.
For `COc1cc2nc(C)nc(N[C@H](C)c3cccc(/C=C/C4CC4)c3)c2cc1OC` [Example 63, N-[(1R)-1-{3-[(E)-2-cyclopropylethenyl]phenyl}ethyl]-6,7-dimethoxy-2-methylquinazolin-4-amine], the values for the IC50 in test [1], in test [2] and in test [3] were 1.88 µM, 1.8 µM and 1.13 µM, respectively.
In the case of `CCOCc1ccccc1-c1cccc([C@@H](C)Nc2nc(C)nc3cc(OC)c(OC)cc23)c1` [Example 64, N-{(1R)-1-[2′-(ethoxymethyl)biphenyl-3-yl]ethyl}-6,7-dimethoxy-2-methylquinazolin-4-amine], the IC50 in test [1] was 2.21 µM; in test [2] it was 1.96 µM; in test [3], 1.4 µM.
For `COc1cc(F)cc(-c2cccc([C@@H](C)Nc3nc(C)nc4cc(OC)c(OC)cc34)c2)c1` [Example 65, N-[(1R)-1-(3′-fluoro-5′-methoxybiphenyl-3-yl)ethyl]-6,7-dimethoxy-2-methylquinazolin-4-amine], in that order: 13.5 µM, 8.34 µM and 5.76 µM.
Regarding `COc1ccc2oc(-c3cccc([C@@H](C)Nc4nc(C)nc5cc(OC)c(OC)cc45)c3)cc2c1` [Example 66, 6,7-dimethoxy-N-{(1R)-1-[3-(5-methoxy-1-benzofuran-2-yl)phenyl]ethyl}-2-methylquinazolin-4-amine], the values for the half-maximal inhibitory concentration (IC50) in test [1], in test [2] and in test [3] were 6.6 µM, 4.55 µM and 3.46 µM, respectively.
Turning to `CCCCOc1cccc(F)c1-c1cccc([C@@H](C)Nc2nc(C)nc3cc(OC)c(OC)cc23)c1` [Example 67, N-[(1R)-1-(2′-butoxy-6′-fluorobiphenyl-3-yl)ethyl]-6,7-dimethoxy-2-methylquinazolin-4-amine], in test [1], the inhibition at 20 µM came to 54%. For the same molecule, the concentration for half-maximal inhibition (IC50) in test [2] was found to be 19.6 µM; in test [3] it was 9.98 µM.
`COc1cc2nc(C)nc(N[C@H](C)c3cccc(-c4ccc(C(C)(C)C#N)cc4)c3)c2cc1OC` [Example 69, 2-(3′-{(1R)-1-[(6,7-dimethoxy-2-methylquinazolin-4-yl)amino]ethyl}biphenyl-4-yl)-2-methylpropanenitrile]: the IC50 in test [1] is 9.07 µM; in test [2], 5.41 µM; in test [3], 3.92 µM.
Turning to `COc1cc2nc(C)nc(N[C@H](C)c3cccc(-c4cccc(CNS(C)(=O)=O)c4)c3)c2cc1OC` [Example 71, N-[(3′-{(1R)-1-[(6,7-dimethoxy-2-methylquinazolin-4-yl)amino]ethyl}biphenyl-3-yl)methyl]methanesulfonamide], the half-inhibitory concentration (IC50) in test [1] is 0.68 µM; in test [2] it was 0.643 µM; in test [3] it was 0.393 µM.
The like results for `COc1cc2nc(C)nc(N[C@H](C)c3cccc(-c4ccc(CNS(C)(=O)=O)cc4)c3)c2cc1OC` [Example 72, N-[(3′-{(1R)-1-[(6,7-dimethoxy-2-methylquinazolin-4-yl)amino]ethyl}biphenyl-4-yl)methyl]methanesulfonamide] were, in that order, 0.882 µM, 0.666 µM and 0.737 µM.
On to `CCCNC(=O)c1ccc(-c2cccc([C@@H](C)Nc3nc(C)nc4cc(OC)c(OC)cc34)c2)cc1` [Example 73, 3′-{(1R)-1-[(6,7-dimethoxy-2-methylquinazolin-4-yl)amino]ethyl}-N-propylbiphenyl-4-carboxamide], for which the values for the half-maximal inhibitory concentration (IC50) in test [1], in test [2] and in test [3] were 0.495 µM, 0.554 µM and 0.427 µM, respectively.
`COc1cc2nc(C)nc(N[C@H](C)c3cccc(-c4ccc(C(=O)NCCN(C)C)cc4)c3)c2cc1OC` [Example 74, 3′-{(1R)-1-[(6,7-dimethoxy-2-methylquinazolin-4-yl)amino]ethyl}-N-[2-(dimethylamino)ethyl]biphenyl-4-carboxamide]: the concentration for half-maximal inhibition (IC50) stood at 0.261 µM in test [1], 0.223 µM in test [2] and 0.149 µM in test [3].
As for `COc1cc2nc(C)nc(N[C@H](C)c3cccc(-c4ccn[nH]4)c3)c2cc1OC` [Example 75, 6,7-dimethoxy-2-methyl-N-{(1R)-1-[3-(1H-pyrazol-3-yl)phenyl]ethyl}quinazolin-4-amine], the 50% inhibitory concentration (IC50) was determined as 1.01 µM in test [1], 1.15 µM in test [2] and 0.588 µM in test [3].
Turning to `C/C=C(\C)c1cccc([C@@H](C)Nc2nc(C)nc3cc(OC)c(OC)cc23)c1` [Example 76, N-[(1R)-1-{3-[(2E)-but-2-en-2-yl]phenyl}ethyl]-6,7-dimethoxy-2-methylquinazolin-4-amine], the half-inhibitory concentration (IC50) in test [1] stood at 0.952 µM; in test [2] it was 1.19 µM; in test [3], 0.471 µM.
The like results for `CCCOc1ccc(Cl)cc1-c1cccc([C@@H](C)Nc2nc(C)nc3cc(OC)c(OC)cc23)c1` [Example 77, N-[(1R)-1-(5′-chloro-2′-propoxybiphenyl-3-yl)ethyl]-6,7-dimethoxy-2-methylquinazolin-4-amine] were, in that order, 19.9 µM, 9.63 µM and 7.86 µM.
Regarding `COc1cc2nc(C)nc(N[C@H](C)c3cccc(/C=C/Cc4ccccc4)c3)c2cc1OC` [Example 78, 6,7-dimethoxy-2-methyl-N-[(1R)-1-{3-[(1E)-3-phenylprop-1-en-1-yl]phenyl}ethyl]quinazolin-4-amine], the inhibition at 20 µM in test [1] was determined as 31%; in test [2], 45%. Also, the IC50 in test [3] was determined as 8.55 µM.
As to `COc1cc2nc(C)nc(N[C@H](C)c3cccc(-c4ccc(N5CCOCC5)cc4)c3)c2cc1OC` [Example 79, 6,7-dimethoxy-2-methyl-N-{(1R)-1-[4′-(morpholin-4-yl)biphenyl-3-yl]ethyl}quinazolin-4-amine], the concentration for half-maximal inhibition (IC50) came out at 1.65 µM in test [1], 0.937 µM in test [2] and 1.55 µM in test [3].
Take `COc1cc2nc(C)nc(N[C@H](C)c3cccc(-c4cccc(N5CCOCC5)c4)c3)c2cc1OC` [Example 80, 6,7-dimethoxy-2-methyl-N-{(1R)-1-[3′-(morpholin-4-yl)biphenyl-3-yl]ethyl}quinazolin-4-amine]: the IC50 was 1.12 µM in test [1], 0.711 µM in test [2] and 0.721 µM in test [3].
Take `COc1cc2nc(C)nc(N[C@H](C)c3cccc(-c4ccccc4OCc4ccccc4)c3)c2cc1OC` [Example 81, N-{(1R)-1-[2′-(benzyloxy)biphenyl-3-yl]ethyl}-6,7-dimethoxy-2-methylquinazolin-4-amine]: the inhibition at 20 µM in test [1] turned out to be 24%; in test [2], 33%; in test [3] (read-out: Assay 1 (KRAS-SOS Interaction) activity expressed as % inhibition at 20 μM) it was 42%.
Consider `COc1cc2nc(C)nc(N[C@H](C)c3cccc(-c4ccc(S(C)(=O)=O)cc4)c3)c2cc1OC` [Example 82, 6,7-dimethoxy-2-methyl-N-{(1R)-1-[4′-(methylsulfonyl)biphenyl-3-yl]ethyl}quinazolin-4-amine], for which the IC50 in test [1] was 1 µM; in test [2], 0.857 µM; in test [3] it was 0.598 µM.
As for `COc1cc2nc(C)nc(N[C@H](C)c3cccc(-c4ccccc4OC(F)(F)F)c3)c2cc1OC` [Example 83, 6,7-dimethoxy-2-methyl-N-{(1R)-1-[2′-(trifluoromethoxy)biphenyl-3-yl]ethyl}quinazolin-4-amine], the concentration for half-maximal inhibition (IC50) was 17.4 µM in test [1], 7.85 µM in test [2] and 8.5 µM in test [3].
